Results from US9249159B2, “Composition for treating hepatitis C virus, regulating phosphorylation of replicase” (Industry-Academic Cooperation Foundation, Yonsei University, priority 2011, dated 2016).
“Also recorded” adds a separate entry of the source.

Key:
[1] = tested on: genotype 2a HCV (JFH1)-infected Huh7 cells; assay: HCV RNA level in Huh7 cells infected with HCV (JFH1); format: cell-based, hepatitis C virus genotype 2a; conditions: Huh7 cell infected with HCV (JFH-1), 60 and 100 μM, 48 hours
Experimental: (§1) To do so, after the two cell lines were treated with the compound #17 at higher concentrations (60 and 100 μM) than 20 μM for 48 hours, an HCV RNA genome level was checked by a real-time RT-PCR analysis. A value was a mean±standard deviation (SD) of three independent measurements. HCV RNA titer was quantified by real-time PCR analysis. Three independent experiments were performed in triplicate.
Full-length, infectious HCV RNA of the genotype 2a HCV clone JFH1 was prepared by in vitro transcription using the MEGAscript T7 kit (Ambion, Austin, Tex., USA) and electroporated into Huh7 cells as described previously. Briefly, at 72 h post electroporation, culture medium was collected, cleared by low-speed centrifugation, and passed through a 0.45-μm filter (Millipore, Billerica, Mass., USA) before being used for infection of Huh7 cells. Cells were infected with HCV at a multiplicity of infection of 0.3 by adsorption for 3 h with periodic rocking, then washed three times with phosphate-buffered saline (PBS) and maintained in complete DMEM. […]
Total RNA was extracted from R-1 or HCV (JFH1)-infected cells using TRIzol LS reagent (Invitrogen, Carlsbad, Calif., USA) and purified according to the manufacturer's instructions. HCV RNA levels were quantified by RT-PCR using a primer pair and TaqMan probe targeting a region within the HCV 5′-UTR as described previously. […] Assays were performed using the DyNAmo Probe 2-step qRT-PCR Kit (Finnzymes, Espoo, Finland) and a CHROMO4 continuous fluorescence detector (Bio-Rad, Hercules, Calif., USA), according to the manufacturer's instructions.
In order to analyze whether or not 17-DMAG can inhibit replication in a cell infected with HCV, an experiment was carried out with the genotype 2a HCV infectious clone JFH1, which produces infectious virions in Huh7 or Huh7-derived cell lines. […] After 72 hours, total cellular RNA was extracted and HCV remaining in the infected cell was analyzed by quantitative RT-PCR.

[2] = target: recombinant active PRK2 (Homo sapiens, UniProt Q16513); assay: In vitro kinase assay: recombinant PRK2 phosphorylating HCV NS5B; format: biochemical; conditions: gamma-32P ATP and 100 μM ATP, autoradiography
Sequence of recombinant active PRK2 (Q16513 whole entry): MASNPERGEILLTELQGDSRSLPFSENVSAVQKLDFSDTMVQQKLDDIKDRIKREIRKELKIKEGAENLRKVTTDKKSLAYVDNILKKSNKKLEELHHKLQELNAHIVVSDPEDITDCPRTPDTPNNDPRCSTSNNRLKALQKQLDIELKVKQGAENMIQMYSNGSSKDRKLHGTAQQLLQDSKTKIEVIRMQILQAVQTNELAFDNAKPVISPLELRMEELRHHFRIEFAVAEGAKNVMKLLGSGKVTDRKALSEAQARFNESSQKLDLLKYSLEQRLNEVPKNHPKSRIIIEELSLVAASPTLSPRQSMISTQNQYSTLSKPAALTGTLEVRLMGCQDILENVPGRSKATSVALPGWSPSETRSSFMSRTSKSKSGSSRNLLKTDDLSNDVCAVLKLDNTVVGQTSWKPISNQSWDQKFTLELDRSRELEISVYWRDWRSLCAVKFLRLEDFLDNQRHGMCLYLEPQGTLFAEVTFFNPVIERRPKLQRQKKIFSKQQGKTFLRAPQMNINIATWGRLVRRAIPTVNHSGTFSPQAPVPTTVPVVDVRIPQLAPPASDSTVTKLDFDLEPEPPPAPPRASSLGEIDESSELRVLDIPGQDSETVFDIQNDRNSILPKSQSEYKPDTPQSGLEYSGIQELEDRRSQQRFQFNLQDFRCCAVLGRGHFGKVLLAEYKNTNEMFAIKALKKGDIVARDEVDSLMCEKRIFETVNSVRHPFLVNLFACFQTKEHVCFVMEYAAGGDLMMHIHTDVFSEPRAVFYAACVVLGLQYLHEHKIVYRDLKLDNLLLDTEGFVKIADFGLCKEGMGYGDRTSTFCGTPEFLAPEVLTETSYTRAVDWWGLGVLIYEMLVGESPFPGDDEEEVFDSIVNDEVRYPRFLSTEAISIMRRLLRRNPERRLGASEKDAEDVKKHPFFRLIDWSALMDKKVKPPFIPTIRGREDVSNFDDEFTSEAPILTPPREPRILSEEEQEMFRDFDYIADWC
Experimental: Then, in order to test an HCV NS5B protein phosphorylation inhibition effect of the screened novel PRK2 inhibitor, in vitro kinase assay was carried out.
Using a recombinant active PRK2 and purified HCV NS5B protein as substrates, the screened inhibitors #11 and #17 were treated in the presence of gamma-^32P ATP and 100 μM ATP. The reaction mixture was separated by SDS-PAGE (8% gel), and a result thereof was checked by autoradiography.
Finally, PRK2 and HCV NS5B phosphorylation inhibition effects of the compounds #18, #19, #20, #21 and #22 as the derivatives of the compound #17 were analyzed through in vitro kinase assay.
A 1 μM recombinant PRK2 and 10 μM HCV NS5B were phosphorylated for 30 minutes in the presence of 10 μCi γ-^32P ATP and 100 μM ATP. The reaction mixture was separated by SDS-PAGE (8% gel), and a result thereof was checked by autoradiography.

[3] = tested on: R-1 cell; assay: Cytotoxicity / cell viability in R-1 cell; format: cell-based, human; conditions: R-1 cell, 100 μM
Experimental: (§2) Cytotoxicity of 17-DMAG was measured by using a reagent MTS [3-(4,5-dimethylthiazol-2-yl)-5-(3-carboxylmethoxyphenyl)-2-(4-sulfophenyl)-2H-tetrazolium] (Promega, Madison, Wis., USA) according to the protocols of the manufacturer. The experiment was carried out as follows.
(§3) Huh7 or R-1 cells (2×10^4 cell/well) were seeded in a 96-well plate and treated with 17-DMAG at different concentrations for 72 hours. Then, the culture medium was removed and a MTS substrate dissolved in the culture medium containing 5% FBS was added to each well of the plate. The cells were cultured at 37° C. for 1 hour, and absorbance at 490 nm was read in a 96-well micro plate automatic reading system using GloMax-Multi detection system (Promega).
(§4) An experiment was carried out to check whether or not 17-DMAG inhibited virus RNA replication in an R-1 cell in which autonomous replication of a genotype 1b HCV subgenomic replicon RNA was maintained. Before antiviral activity of 17-DMAG was evaluated, an MTS assay was carried out to evaluate whether or not the drug interfered with cell viability. To be specific, the R-1 cell loaded with a selective HCV subgenomic replicon (upper diagram) and its parental cell line Huh7 were treated with 17-DMAG at a certain concentration for 72 hours, and cell viability was evaluated by the MTS assay.

[4] = tested on: genotype 1b HCV subgenomic replicon (R-1 cell line); assay: HCV replication (HCV RNA by real-time RT-PCR, NS5B protein by Western blot) in R-1 subgenomic replicon cells; format: cell-based, hepatitis C virus genotype 1b; conditions: 48 hours
Text: In order to check a PRK2 phosphorylation inhibition effect of the novel inhibitors obtained in Example 1, R-1 cell line harboring HCV subgenomic replicons was used.
The R-1 cell line was comprised of cis-acting RNA elements of 5′ and 3′-end untranslated regions (UTR) essential for replication of HCV RNA, a selection marker inserted to select a replicated RNA into a portion from which a structural protein coding site was removed, and a non-structural protein (NS3-NS5B)-coding gene required for replication. In the replicon, the selection marker was expressed by the HCV 5′-UTR and internal ribosome entry site (IRES) as a part of a coding gene of a core protein as a structural protein and capsid protein, and HCV non-structural proteins were expressed by IRES of EMCV. In order to obtain replicon cells, a HCV subgenomic replicon RNA was obtained by means of in vitro transcription by using a T7 RNA polymerase, free ribonucleotide was removed by using a spin column, and introduced into a hepatocellular carcinoma cell line by electroporation. In the presence of G418, a stable cell line, i.e. a cell line showing a resistance to G418 through replication of HCV subgenome, was obtained. Expression of the HCV non-structural proteins in this cell line was analyzed by Western blot to confirm that replication was being carried out, and the R-1 cell line was constructed. It was observed that an HCV RNA copy number was about 10^7 copies/mL by a quantitative real-time PCR analysis using a TaqMan probe. The R-1 cell line was a cell line in which HCV RNA replication was being carried out, and thus it could be used to evaluate an HCV replication inhibition effect of a PRK2 activity inhibitor.
Then, after the R-1 cell line was treated with each of 5 screened PRK2 inhibitors, HA1077 currently and clinically used as a PRK2 activity inhibitor, and Y27632 having a PRK2 activity inhibition effect at a final concentration of 20 μM for 48 hours, levels of HCV NS5B protein and HCV RNA in cell lysates (50 μg) were analyzed by Western blot and real-time RT-PCR.
as §1
5 derivatives (#18 to #22: refer to FIG. 2) were produced based on the inhibitor #17 showing the best effect. After the R-1 cell line was treated with each of these inhibitors or HA1077 and Y27632 at a final concentration of 20 μM for 48 hours, an HCV RNA genome level was checked by a real-time RT-PCR analysis and expressed in % with respect to a control treated with DSMO. Three independent experiments were conducted repeatedly three times. Data were expressed by mean±SD of the three experiments.
Total RNA was extracted from R-1 or HCV (JFH1)-infected cells using TRIzol LS reagent (Invitrogen, Carlsbad, Calif., USA) and purified according to the manufacturer's instructions. HCV RNA levels were quantified by RT-PCR using a primer pair and TaqMan probe targeting a region within the HCV 5′-UTR as described previously. Cellular glyceraldehyde-3-phosphate dehydrogenase was used as an internal control. Assays were performed using the DyNAmo Probe 2-step qRT-PCR Kit (Finnzymes, Espoo, Finland) and a CHROMO4 continuous fluorescence detector (Bio-Rad, Hercules, Calif., USA), according to the manufacturer's instructions.
Therefore, anti-HCV activity of 17-DMAG in the R-1 cell was tested at a level lower than 50 nM. To do so, the R-1 cell was treated with a vehicle (0.25% DMSO) or 17-DMAG for 72 hours and the cell lysates (50 μg) and antibodies specific to the proteins were immunoblotted to measure levels of the proteins. An anti-α-tubulin antibody (lower end panel) was used as an internal loading control. […]

[5] = tested on: Huh7 cell; assay: Cytotoxicity / cell viability (MTS) in Huh7 cell; format: cell-based, human; conditions: 100 μM
Experimental: as §2, §3, §4

O=C1NCCCC1C(=O)Nc1ccncc1 (stereo not drawn) [compound #17, 2-oxo-N-4-pyridinyl-3-piperidinecarboxamide]
HCV RNA titers [1]: decreased in a dosage-dependent manner; also recorded: slightly higher in a cell infected with JFH-1 than in an HCV subgenomic replicon cell
inhibition of in vitro phosphorylation of HCV NS5B protein [2]: inhibit phosphorylation of HCV NS5B protein
activity of the cells (cytotoxicity) [3]: not greatly inhibited
decrease of HCV RNA titers with respect to DMSO control ([4]; R-1 cell line, 20 μM): about 50%
HCV RNA titers ([4]; R-1 cell, 60 and 100 μM): decreased in a dosage-dependent manner
activity of the cells (cytotoxicity) [5]: not greatly inhibited
